This test concerns nude mice, A549 intrarenal xenograft, tumor weight change. Description: NCI In Vivo Anticancer Drug Screen. Data for tumor model A549 Human Adenocarcinoma of Lung with characteristics of Type II Alveolar Epithelial cells (intrarenal inoculation) in NU/NU BALB/C (nude) mice. Conditions: endpoint: mean tumor weight change, schedule: Q04DX003 (ip), higher = larger tumour. Here is the method:
The antitumor activity of compounds was measured in mice bearing transplantable tumors. Survival or tumor size were measured and the results are expressed as the measurement made in the treated group (T) divided by the measurement made in the vehicle treated control group (C). The tumor model used in this assay is A549 Human Adenocarcinoma of Lung with characteristics of Type II Alveolar Epithelial cells (intrarenal inoculation) in NU/NU BALB/C (nude) mice

The mark [1] stands for this setting: dose: 12.5 mg/kg/injection, vehicle: water.
Where [2] appears, read: dose: 25.0 mg/kg/injection, vehicle: water.
[3] abbreviates: dose: 50.0 mg/kg/injection, vehicle: water.
Where [4] appears, read: dose: 75.0 mg/kg/injection, vehicle: Klucel (hydroxypropylcellulose) (HPC).
The mark [5] stands for this setting: dose: 150.0 mg/kg/injection, vehicle: Klucel (hydroxypropylcellulose) (HPC).
[6] abbreviates: dose: 100.0 mg/kg/injection, vehicle: Klucel (hydroxypropylcellulose) (HPC).
[7] abbreviates: dose: 25.0 mg/kg/injection, vehicle: saline.
The mark [8] stands for this setting: dose: 50.0 mg/kg/injection, vehicle: saline.
Where [9] appears, read: dose: 100.0 mg/kg/injection, vehicle: saline.
The mark [10] stands for this setting: dose: 1.0 mg/kg/injection, vehicle: saline with Tween-80.
The mark [11] stands for this setting: dose: 2.0 mg/kg/injection, vehicle: saline with Tween-80.

Each structure is given as a SMILES string. Several values for one entry are separate records, joined by “and”; a condition that tells them apart may be missing. Identical values can stand only once. Records with an inconclusive call do not appear.

For `COc1ccc2c(c1)-c1nn(CCCN(C)C)c3ccc([N+](=O)[O-])c(c13)N2`, the T/C was 61 % of control under setting [1]; 81 % of control under setting [2]; 14 % of control under setting [3]; 27 % of control (dose: 100.0 mg/kg/injection, vehicle: water).
For `CC(=O)c1cccc(NC2C(N)C(NC(=O)N(C)C)(C(C)O)C(C)(O)C2(O)COC(=O)c2c(C)cccc2O)c1` (stereo not drawn), the T/C runs as follows: (dose: 6.25 mg/kg/injection, vehicle: suspension in saline) 183 % of control; (dose: 12.5 mg/kg/injection, vehicle: suspension in saline) 121 % of control; (dose: 25.0 mg/kg/injection, vehicle: suspension in saline) 120 % of control; (dose: 50.0 mg/kg/injection, vehicle: suspension in saline) 68 % of control.
Take `COC1CC2C=C(C)/C=C/C=C/C(=O)NC(c3ccccc3)C/C=C/CCC(O)CC(=O)C2=C1O` (stereo not drawn): the T/C was 17 % of control (dose: 37.5 mg/kg/injection, vehicle: Klucel (hydroxypropylcellulose) (HPC)); 115 % of control under setting [4]; 113 % of control under setting [5].
On to `CC1=CCCC2C1(C)CCC(C)C2(C)Cc1cc(O)ccc1O` (stereo not drawn), for which the T/C under setting [6] is 16 % of control.
As for `CC[C@]1(O)C[C@H]2CN(CCc3c([nH]c4ccccc34)[C@@](C(=O)OC)(c3cc4c(cc3OC)N(C)[C@H]3[C@@](O)(C(=O)OC)[C@H](OC(C)=O)[C@]5(CC)C=CCN6CC[C@]43[C@@H]65)C2)C1`, the T/C is -2 % of control (dose: 0.67 mg/kg/injection, vehicle: Klucel (hydroxypropylcellulose) (HPC)) and -49 % of control (dose: 1.0 mg/kg/injection, vehicle: Klucel (hydroxypropylcellulose) (HPC)).
On to `O=NNc1ccc(Cl)cn1`, for which the T/C is, setting by setting: (dose: 5.0 mg/kg/injection, vehicle: water) 63 % of control; (dose: 6.25 mg/kg/injection, vehicle: water) 113 % of control; (dose: 10.0 mg/kg/injection, vehicle: water) 68 % of control; under setting [1], 62 % of control; (dose: 20.0 mg/kg/injection, vehicle: water) 100 % of control; under setting [2], 61 % of control. Further, the T/C runs as follows: (dose: 40.0 mg/kg/injection, vehicle: water) 57 % of control; under setting [3], 26 % of control.
For the compound `Nc1nc(Br)nc2c1ncn2C1CC(O)C(CO)O1` (stereo not drawn), the T/C reads like this: under setting [7], 92 % of control; under setting [8], 121 % of control; under setting [9], 96 % of control; (dose: 200.0 mg/kg/injection, vehicle: saline) 74 % of control.
Regarding `Cc1cc(O)c2c(c1O)C(=O)C13C(=C2O)C(=O)C2C(O)C1C1C(O)C3C(=O)C3=C(O)c4c(O)cc(C)c(O)c4C(=O)C321` (stereo not drawn), the T/C reads like this: under setting [10], 172 % of control; under setting [11], 112 % of control.
Regarding `CCOc1ccc(-c2nc3ccc(-c4nc5ccc(N6CCN(C)CC6)cc5[nH]4)cc3[nH]2)cc1`, the T/C (dose: 6.25 mg/kg/injection, vehicle: saline) was 155 % of control; the T/C under setting [7] is 101 % of control; the T/C under setting [8] was 171 % of control.
With `CC(=O)NO`, the T/C reads like this: (dose: 150.0 mg/kg/injection, vehicle: water) 83 % of control; (dose: 300.0 mg/kg/injection, vehicle: water) 82 % of control; (dose: 600.0 mg/kg/injection, vehicle: water) 109 % of control; (dose: 1200.0 mg/kg/injection, vehicle: water) 66 % of control.
`c1ccc([Te][Te]c2ccccc2)cc1`: the T/C is, setting by setting: (dose: 9.38 mg/kg/injection, vehicle: saline with Tween-80) 71 % of control; (dose: 18.75 mg/kg/injection, vehicle: saline with Tween-80) 59 % of control; (dose: 37.5 mg/kg/injection, vehicle: saline with Tween-80) 122 % of control.
On to `CC(C)N1C(=O)N(Cl)C2C1N(Cl)C(=O)N2Cl` (stereo not drawn), for which the T/C (dose: 12.5 mg/kg/injection, vehicle: saline with Tween-80) was 51 % of control and 76 % of control; the T/C (dose: 25.0 mg/kg/injection, vehicle: saline with Tween-80) is 18 % of control.
In the case of `Nc1ccc2ccc(NS(=O)(=O)N3CCCCC3)cc2c1`, the T/C runs as follows: (dose: 150.0 mg/kg/injection, vehicle: saline with Tween-80) 94 % of control; (dose: 300.0 mg/kg/injection, vehicle: saline with Tween-80) 60 % of control; (dose: 600.0 mg/kg/injection, vehicle: saline with Tween-80) 32 % of control.
Regarding `CN(C)C(=O)Nc1ccc(Cl)cc1`, the T/C runs as follows: (dose: 150.0 mg/kg/injection, vehicle: suspension in saline) 120 % of control; (dose: 300.0 mg/kg/injection, vehicle: suspension in saline) 74 % of control; (dose: 600.0 mg/kg/injection, vehicle: suspension in saline) 112 % of control.
As for `CC(C)(C)NC(C1=CC(C)(C)c2ccccc2C1=O)c1ccccc1` (stereo not drawn), the T/C is 107 % of control under setting [6] and 65 % of control (dose: 200.0 mg/kg/injection, vehicle: Klucel (hydroxypropylcellulose) (HPC)).
Regarding `C=C1c2cccc(O)c2C(O)=C2C(=O)[C@]3(O)C(O)=C(C(N)=O)C(=O)[C@@H](N(C)C)[C@@H]3[C@@H](O)[C@H]12`, under setting [4], the T/C is 96 % of control.
Take `O=C(O)C1CC(O)CN1` (stereo not drawn): the T/C is 70 % of control (dose: 150.0 mg/kg/injection, vehicle: saline); 65 % of control (dose: 300.0 mg/kg/injection, vehicle: saline); 110 % of control (dose: 600.0 mg/kg/injection, vehicle: saline); 71 % of control (dose: 1200.0 mg/kg/injection, vehicle: saline).
On to `Nc1ccc(S(=O)(=O)Nc2cnc3c(Cl)cccc3n2)cc1`, for which the T/C is, setting by setting: (dose: 220.0 mg/kg/injection, vehicle: saline) 70 % of control; (dose: 315.0 mg/kg/injection, vehicle: saline) 53 % of control; (dose: 450.0 mg/kg/injection, vehicle: saline) 43 % of control; (dose: 642.9 mg/kg/injection, vehicle: saline) 52 % of control.
As to `CC[C@@]1(O)C(=O)OCc2c1cc1n(c2=O)Cc2cc3c(N)cccc3nc2-1`, the T/C runs as follows: under setting [10], 3 % of control; (dose: 1.44 mg/kg/injection, vehicle: saline with Tween-80) 1 % of control; under setting [11], -8 % of control; (dose: 2.4 mg/kg/injection, vehicle: saline with Tween-80) -64 % of control; (dose: 4.0 mg/kg/injection, vehicle: saline with Tween-80) -68 % of control.
As for `Oc1c(Cl)cc(Cl)cc1C=NCCSc1ccc(Cl)cc1`, the T/C is, setting by setting: under setting [5], 90 % of control; (dose: 300.0 mg/kg/injection, vehicle: Klucel (hydroxypropylcellulose) (HPC)) 100 % of control; (dose: 600.0 mg/kg/injection, vehicle: Klucel (hydroxypropylcellulose) (HPC)) 83 % of control.
On to `Cc1ccc(C(=O)Nc2ccc(S(=O)(=O)O)c3cc(S(=O)(=O)O)cc(S(=O)(=O)O)c23)cc1NC(=O)c1cccc(NC(=O)Nc2cccc(C(=O)Nc3cc(C(=O)Nc4ccc(S(=O)(=O)O)c5cc(S(=O)(=O)O)cc(S(=O)(=O)O)c45)ccc3C)c2)c1`, for which the T/C is, setting by setting: under setting [7], 99 % of control; under setting [8], 100 % of control; under setting [9], 112 % of control.

For the origin of these results see PubChem BioAssay AID278 (DTP/NCI, 2004).
